Measurements reported in patent publication US20110319424A1, “NAPHTHYRIDIN-2(1H) -ONE COMPOUNDS USEFUL AS ANTIBACTERIALS” (priority 2008, published 2011).
Converted amounts (≈) assume the structure as drawn.

How the values were obtained:
Format in all cases: cell-based
[1] = General antimicrobial activity assay (whole-cell, CLSI broth microdilution, MIC); details: against a strain of at least one of the organisms listed; broth microdilution, 0.016 to 64 μg/mL
Experimental: (§1) General Antimicrobial Activity Assay
(§2) Whole-cell antimicrobial activity was determined by broth microdilution using the Clinical and Laboratory Standards Institute (CLSI) recommended procedure, Document M7-A7, “Methods for Dilution Susceptibility Tests for Bacteria that Grow Aerobically”. The compounds were tested in serial two-fold dilutions ranging from 0.016 to 64 μg/mL.
(§3) Compounds were evaluated against gram-positive organisms, selected from i) Staphylococcus aureus, ii) Streptococcus pneumoniae, and iii) Enterococcus faecalis. Two compounds were additionally evaluated against Streptococcus pyogenes, and Enterococcus faecium.
(§4) In addition, compounds were evaluated against gram-negative organisms selected from iv) Haemophilus influenzae, v) Moraxella catarrhalis and vi) Escherichia coll. Two compounds were additionally evaluated against Pseudomonas aeruginosa, Proteus mirabilis, Enterobacter cloacae, Enterobacter aerogenes, Klebsiella pneumoniae and Stenotrophomonas maltophilia.
(§5) The minimum inhibitory concentration (MIC) was determined as the lowest concentration of compound that inhibited visible growth. A mirror reader was used to assist in determining the MIC endpoint.

[2] = tested on: Mycobacterium tuberculosis H37Rv; assay: Mycobacterium tuberculosis H37Rv inhibition assay (MIC, resazurin fluorescence); details: ATCC 25618 / H37Rv, 144 h, H37Rv strain (ATCC25618), Middlebrook 7H9, six days at 37° C. then resazurin 48 hours
[3] = tested on: gram-positive organisms i) Staphylococcus aureus, ii) Streptococcus pneumoniae, iii) Enterococcus faecalis and gram-negative organisms iv) Haemophilus …; assay: General antimicrobial activity assay (whole-cell, CLSI broth microdilution, MIC); details: organisms i)-vi) of the antimicrobial activity assay
Experimental: as §1, §2, §3, §4, §5

Row | SMILES | MIC [1] [µg/mL] | MIC [2] [µg/mL] | activity against organisms i)-vi) [3]
1 | O=c1ccc2ncc(F)cc2n1CCN1CCC(NCc2ccc(F)cc2)CC1 [Example 14, 7-Fluoro-1-[2-(4-{[(4-fluorophenyl)methyl]amino}-1-piperidinyl)ethyl]-1,5-naphthyridin-2(1H)-one] | 4 (≈ 10 µM) | ≤ 2.4 | 
2 | O=c1ccc2ncccc2n1CCN1CCC(NCc2cccc(Cl)c2)CC1 [Example 57, 1-[2-(4-{[(3-chlorophenyl)methyl]amino}-1-piperidinyl)ethyl]-1,5-naphthyridin-2(1H)-one] | 4 (≈ 10.1 µM) | ≤ 2.4 | 
3 | O=c1ccc2ncccc2n1CCN1CCC(NCc2cc(Cl)cc(Cl)c2)CC1 [Example 58, 1-[2-(4-{[(3,5-dichlorophenyl)methyl]amino}-1-piperidinyl)ethyl]-1,5-naphthyridin-2(1H)-one] |  |  | no activity
4 | O=c1ccc2ncc(F)cc2n1CCN1CCC(NCc2nc(Br)cs2)CC1 [Example 60, 1-[2-(4-{[(4-bromo-1,3-thiazol-2-yl)methyl]amino}-1-piperidinyl)ethyl]-7-fluoro-1,5-naphthyridin-2(1H)-one] | 32 (≈ 68.6 µM) |  | 
5 | Cc1ncc(CNC2CCN(CCn3c(=O)ccc4ncc(F)cc43)CC2)[nH]1.O=C(O)C(F)(F)F [Example 119, 7-fluoro-1-[2-(4-{[(2-methyl-1H-imidazol-4-yl)methyl]amino}-1-piperidinyl)ethyl]-1,5-naphthyridin-2(1H)-one trifluoroacetate] | > 64 |  | 
6 | Cc1ncc(CN[C@H]2CCN(CCn3c(=O)ccc4ncc(F)cc43)C[C@H]2O)cc1F [Example 128, 7-fluoro-1-[2-((3R,4S)-4-{[(5-fluoro-6-methyl-3-pyridinyl)methyl]amino}-3-hydroxy-1-piperidinyl)ethyl]-1,5-naphthyridin-2(1H)-one] | 32 (≈ 74.5 µM) | ≤ 2.4 | 
